In patent EP4635500A1, “THERAPEUTIC AGENT FOR BACTERIAL INFECTION” (Sumitomo Pharma Co., Ltd., priority 2022, dated 2024):
≈ marks a conversion by molar mass, not a printed value. Read-outs that look alike come from different tables or passages of the source.

Experiments:
[1] = system: P. aeruginosa; test: MIC, broth microdilution, CDC/FDA Antibiotic Resistance Isolate Bank (Example 7, Tables 10, 15); type: cell-based; details: Pseudomonas aeruginosa, read-out: MIC
[2] = system: CRE and CPE strains; test: MIC, broth microdilution, standard strains and Japanese clinical isolates (Example 5, Table 4 continued; organism of each KUB strain not given); type: cell-based

CC(C)(O/N=C(\C(=O)N[C@@H]1C(=O)N2C(C(=O)[O-])=C(C[N+]3(CCNC(=O)c4ccc(O)c(O)c4Cl)CCCC3)CS[C@H]12)c1csc(N)n1)C(=O)O [Cefiderocol, cefiderocol]
MIC ([1]; P. aeruginosa KUB No. 5687, AR Bank # 254): 500 ng/mL (≈ 665 nM) | MIC ([1]; P. aeruginosa KUB No. 5688, AR Bank # 255): 250 ng/mL (≈ 332 nM) | MIC ([1]; P. aeruginosa KUB No. 5689, AR Bank # 256): 2000 ng/mL (≈ 2660 nM) | MIC ([1]; P. aeruginosa KUB No. 5690, AR Bank # 257): 250 ng/mL (≈ 332 nM) | MIC ([1]; P. aeruginosa KUB No. 5691, AR Bank # 258): 250 ng/mL (≈ 332 nM) | MIC ([1]; P. aeruginosa KUB No. 5692, AR Bank # 259): 120 ng/mL (≈ 160 nM) | MIC ([1]; P. aeruginosa KUB No. 5693, AR Bank # 260): 250 ng/mL (≈ 332 nM) | MIC ([1]; P. aeruginosa KUB No. 5694, AR Bank # 261): ≤ 60 ng/mL | MIC ([1]; P. aeruginosa KUB No. 5695, AR Bank # 262): 120 ng/mL (≈ 160 nM) | MIC ([1]; P. aeruginosa KUB No. 5696, AR Bank # 263): 120 ng/mL (≈ 160 nM) | MIC ([1]; P. aeruginosa KUB No. 5697, AR Bank # 264): 250 ng/mL (≈ 332 nM) | MIC ([1]; P. aeruginosa KUB No. 5698, AR Bank # 265): 500 ng/mL (≈ 665 nM) | MIC ([1]; P. aeruginosa KUB No. 5699, AR Bank # 266): 500 ng/mL (≈ 665 nM) | MIC ([1]; P. aeruginosa KUB No. 5700, AR Bank # 267): 120 ng/mL (≈ 160 nM) | MIC ([1]; P. aeruginosa KUB No. 5701, AR Bank # 268): 250 ng/mL (≈ 332 nM) | MIC ([1]; P. aeruginosa KUB No. 5702, AR Bank # 269): 1000 ng/mL (≈ 1330 nM) | MIC ([1]; P. aeruginosa KUB No. 5703, AR Bank # 270): 250 ng/mL (≈ 332 nM) | MIC ([1]; P. aeruginosa KUB No. 5704, AR Bank # 271): 250 ng/mL (≈ 332 nM) | MIC ([1]; P. aeruginosa KUB No. 5705, AR Bank # 272): 250 ng/mL (≈ 332 nM) | MIC ([1]; P. aeruginosa KUB No. 5747, AR Bank # 351): 250 ng/mL (≈ 332 nM) | MIC ([1]; P. aeruginosa KUB No. 5748, AR Bank # 352): 500 ng/mL (≈ 665 nM) | MIC ([1]; P. aeruginosa KUB No. 5749, AR Bank # 353): 1000 ng/mL (≈ 1330 nM) | MIC ([1]; P. aeruginosa KUB No. 5750, AR Bank # 354): 500 ng/mL (≈ 665 nM) | MIC ([1]; P. aeruginosa KUB No. 5751, AR Bank # 355): 250 ng/mL (≈ 332 nM) | MIC ([1]; P. aeruginosa KUB No. 5752, AR Bank # 356): 1000 ng/mL (≈ 1330 nM) | MIC ([1]; P. aeruginosa KUB No. 5753, AR Bank # 357): 4000 ng/mL (≈ 5320 nM) | MIC ([1]; P. aeruginosa KUB No. 5754, AR Bank # 358): 500 ng/mL (≈ 665 nM) | MIC ([1]; P. aeruginosa KUB No. 5755, AR Bank # 359): 250 ng/mL (≈ 332 nM) | MIC ([1]; P. aeruginosa KUB No. 5756, AR Bank # 360): 250 ng/mL (≈ 332 nM) | MIC ([1]; P. aeruginosa KUB No. 5785, AR Bank # 439): 500 ng/mL (≈ 665 nM) | MIC ([1]; P. aeruginosa KUB No. 5786, AR Bank # 440): 250 ng/mL (≈ 332 nM) | MIC ([1]; P. aeruginosa KUB No. 5787, AR Bank # 441): 1000 ng/mL (≈ 1330 nM) | MIC ([1]; P. aeruginosa KUB No. 5788, AR Bank # 443): 1000 ng/mL (≈ 1330 nM) | MIC ([1]; P. aeruginosa KUB No. 5789, AR Bank # 444): 500 ng/mL (≈ 665 nM) | MIC ([1]; P. aeruginosa KUB No. 5790, AR Bank # 445): 500 ng/mL (≈ 665 nM) | MIC ([1]; P. aeruginosa KUB No. 5793, AR Bank # 449): 500 ng/mL (≈ 665 nM) | MIC ([1]; P. aeruginosa KUB No. 5798, AR Bank # 455): 250 ng/mL (≈ 332 nM) | MIC ([1]; P. aeruginosa KUB No. 5799, AR Bank # 456): 250 ng/mL (≈ 332 nM) | MIC ([1]; P. aeruginosa KUB No. 5800, AR Bank # 457): 250 ng/mL (≈ 332 nM) | MIC ([1]; P. aeruginosa KUB No. 5801, AR Bank # 458): 2000 ng/mL (≈ 2660 nM) | MIC ([1]; P. aeruginosa KUB No. 5802, AR Bank # 459): 120 ng/mL (≈ 160 nM) | MIC ([1]; P. aeruginosa KUB No. 5804, AR Bank # 862): 500 ng/mL (≈ 665 nM) | MIC ([1]; P. aeruginosa KUB No. 5805, AR Bank # 863): 500 ng/mL (≈ 665 nM) | MIC ([1]; P. aeruginosa KUB No. 5806, AR Bank # 864): 120 ng/mL (≈ 160 nM) | MIC ([1]; P. aeruginosa KUB No. 5813, AR Bank # 508): 1 ng/mL (≈ 1.33 nM) | MIC ([1]; P. aeruginosa KUB No. 5814, AR Bank # 509): 0.5 ng/mL (≈ 0.665 nM) | MIC ([1]; P. aeruginosa KUB No. 5815, AR Bank # 510): ≤ 0.06 ng/mL | MIC ([1]; P. aeruginosa KUB No. 5816, AR Bank # 511): 0.25 ng/mL (≈ 0.332 nM) | MIC ([1]; P. aeruginosa KUB No. 5817, AR Bank # 512): 1 ng/mL (≈ 1.33 nM) | MIC ([1]; P. aeruginosa KUB No. 5818, AR Bank # 513): 0.25 ng/mL (≈ 0.332 nM) | MIC ([1]; P. aeruginosa KUB No. 5819, AR Bank # 514): 0.12 ng/mL (≈ 0.16 nM) | MIC ([1]; P. aeruginosa KUB No. 5820, AR Bank # 515): 1 ng/mL (≈ 1.33 nM) | MIC ([1]; P. aeruginosa KUB No. 5821, AR Bank # 516): 0.5 ng/mL (≈ 0.665 nM) | MIC ([1]; P. aeruginosa KUB No. 5823, AR Bank # 518): 0.25 ng/mL (≈ 0.332 nM) | MIC ([1]; P. aeruginosa KUB No. 5831, AR Bank # 526): 0.12 ng/mL (≈ 0.16 nM) | MIC ([1]; P. aeruginosa KUB No. 5832, AR Bank # 527): 0.25 ng/mL (≈ 0.332 nM) | MIC ([1]; P. aeruginosa KUB No. 5833, AR Bank # 528): 0.25 ng/mL (≈ 0.332 nM) | MIC ([1]; P. aeruginosa KUB No. 5834, AR Bank # 529): ≤ 0.06 ng/mL | MIC ([2]; strain KUB3149, carbapenemase gene NDM-1, read-out: MIC): 2000 ng/mL (≈ 2660 nM) | MIC ([2]; strain KUB3150, carbapenemase gene OXA-48, read-out: MIC): ≤ 60 ng/mL | MIC ([2]; strain KUB3151, carbapenemase gene IMP-1, read-out: MIC): 1000 ng/mL (≈ 1330 nM) | MIC ([2]; strain KUB3152, carbapenemase gene KPC-2, read-out: MIC): 2000 ng/mL (≈ 2660 nM) | MIC ([2]; strain KUB3154, carbapenemase gene KPC-2, read-out: MIC): 4000 ng/mL (≈ 5320 nM) | MIC ([2]; strain KUB3157, carbapenemase gene NDM-1): 8000 ng/mL (≈ 10600 nM) | MIC ([2]; strain KUB3164, carbapenemase gene IMP-6): 120 ng/mL (≈ 160 nM)
